Test results from ChEMBL document CHEMBL4334448, “Chivosazole A Modulates Protein-Protein Interactions of Actin” (J Nat Prod, 2019).
pIC50: −log10 of the molar value. Calls of active or inactive are those of the source. The calls are words filed in the database; no cut-off is given here.

Legend:
[1] = molecular target: Actin, alpha skeletal muscle (Oryctolagus cuniculus) (UniProt P68135); experiment: Induction of rabbit skeletal muscle alpha-actin depolymerization assessed as destabilization of F-actin 5 uM measured every 15 sec for 90 mins in presence of Turkey gizzard alpha-actinin and […] fluorescent labelled actin by TIRF microscopy analysis
[2] = test system: HUVEC; experiment: Induction of morphological changes in human HUVEC cells assessed as disruption of F-actin fibers at 10 nM to 100 nM incubated for 1 hr by rhodamine-phalloidin staining based fluorescence assay; type: functional, cell-based
[3] = molecular target: Actin, alpha skeletal muscle (Oryctolagus cuniculus) (UniProt P68135); experiment: Inhibition of immobilized rabbit skeletal muscle alpha-actin interaction with thymosin-beta4 at 40 uM pretreated for 30 mins followed by thymosin-beta4 addition measured after 45 mins by cross-linking assay
[4] = molecular target: Actin, alpha skeletal muscle (Oryctolagus cuniculus, UniProt P68135); experiment: (§1) Inhibition of rabbit skeletal muscle alpha-actin polymerization measured after 24 hrs in presence of ATP and fluorescent pyrene-labelled actin by fluorescence based assay
[5] = molecular target: Actin, alpha skeletal muscle (Oryctolagus cuniculus) (UniProt P68135); experiment: as §1
[6] = molecular target: Actin, alpha skeletal muscle (Oryctolagus cuniculus) (UniProt P68135); experiment: Binding affinity to immobilized rabbit skeletal muscle alpha-actin assessed change in retention time of G-actin dimers at 40 uM and pH 6.8 to 8 treated for 30 mins in absence of thymosin-beta4 by size-exclusion chromatography
[7] = molecular target: Actin, alpha skeletal muscle (Oryctolagus cuniculus) (UniProt P68135); experiment: Inhibition of immobilized rabbit skeletal muscle alpha-actin interaction with gelsolin at 12.5 uM pretreated for 30 mins followed by gelsolin addition measured after 1 hr by pull-down assay
[8] = test system: HUVEC; experiment: Inhibition of cell migration in human HUVEC cells assessed as decrease in cell velocity measured after 16 hrs by crystal violet staining based scratch assay; type: functional
[9] = test system: HUVEC; experiment: Antiproliferative activity against human HUVEC measured after 72 hrs; type: cell-based
[10] = molecular target: Actin, alpha skeletal muscle (Oryctolagus cuniculus) (UniProt P68135); experiment: Inhibition of immobilized rabbit skeletal muscle alpha-actin interaction with cofilin at 56 uM pretreated for 30 mins followed by cofilin addition measured after 1 hr by pull-down assay
[11] = molecular target: Actin, alpha skeletal muscle (Oryctolagus cuniculus) (UniProt P68135); experiment: Inhibition of rabbit skeletal muscle alpha-actin polymerization induced by Mg-ATP assessed as decrease in elongation rate at 500 nM to 5 uM measured every 1 sec for 5 mins in presence of Turkey gizzard alpha-actinin and […] fluorescent labelled actin by TIRF microscopy analysis
[12] = molecular target: Actin, alpha skeletal muscle (Oryctolagus cuniculus) (UniProt P68135); experiment: Inhibition of rabbit skeletal muscle alpha-actin nucleation at 500 nM to 5 uM in presence of Turkey gizzard alpha-actinin and […] fluorescent labelled actin by TIRF microscopy analysis
[13] = test system: HUVEC; experiment: Induction of morphological changes in human HUVEC cells assessed as amorphous actin aggregation in nucleus incubated for 1 hr by Hoechst staining based fluorescence assay; type: functional, cell-based
[14] = molecular target: Actin, alpha skeletal muscle (Oryctolagus cuniculus) (UniProt P68135); experiment: Inhibition of immobilized rabbit skeletal muscle alpha-actin interaction with thymosin-beta4 assessed as decrease in cross-linked complex formation at 40 uM pretreated for 30 mins followed by thymosin-beta4 addition measured after 45 mins by cross-linking assay
[15] = molecular target: Actin, alpha skeletal muscle (Oryctolagus cuniculus) (UniProt P68135); experiment: Binding affinity to immobilized rabbit skeletal muscle alpha-actin assessed as formation of G-actin dimers at 40 uM and pH 6.8 to 8 treated for 30 mins in absence of thymosin-beta4 by size-exclusion chromatography
[16] = molecular target: Actin, alpha skeletal muscle (Oryctolagus cuniculus) (UniProt P68135); experiment: Inhibition of immobilized rabbit skeletal muscle alpha-actin interaction with profilin at 66.7 uM pretreated for 30 mins followed by profilin addition measured after 1 hr by pull-down assay

Activity [1]	Activity [6]	inhibition [11]	inhibition [12]	Compound	Activity [2]	inhibition [3]	pIC50 [4]	inhibition [5]	inhibition [7]	pIC50 [8]	pIC50 [9]	inhibition [10]	Activity [13]	Activity [14]	Activity [15]	inhibition [16]
Active	Active	Active	Active	CO[C@H]1[C@H](O[C@H]2/C=C\C=C\c3coc(n3)[C@H](C)[C@H](OC)C[C@@H](O)/C=C/C=C/C=C\[C@H](C)[C@@H]([C@@H](C)[C@@H](O)C[C@@H](C)O)OC(=O)\C=C/C=C/C=C\C(C)=C\[C@H]2C)O[C@H](C)[C@@H](O)[C@@H]1OC	Active	Active	4.82	Dose-dependent effect	Active	7.50	8.52 to 8.53	Active	Active	Active	Active	Active
				C/C1=C/C(=O)O[C@@H]2C[C@@H](CC[C@H](C)/C=C\CC1)O[C@@](O)([C@@H]1CSC(=O)N1)C2 [LATRUNCULIN B]		Active	5.07	Dose-dependent effect	inactive	6.32	6.21	inactive		Active	inactive	inactive
				CO[C@@H]1C[C@@H](O)/C=C/C=C/C=C\[C@H](C)[C@@H]([C@@H](C)[C@@H](O)C[C@@H](C)O)OC(=O)\C=C/C=C/C=C\C(C)=C\[C@@H](C)[C@@H](O)/C=C\C=C\c2coc(n2)[C@@H]1C					Active			Active				Active
